“And” between values parts separate entries of the source, which are not always exact repeats. Equal entries are not always repeated. Toxic doses and inconclusive results are not listed. How the source made its calls: active means survival T/C of 150% or more; inactive means T/C below 125% in these data.
Test system: P388 leukemia ip, CD2F1 mice, survival T/C
Assay: NCI In Vivo Anticancer Drug Screen. Data for tumor model P388 Leukemia (intraperitoneal) in CD2F1 (CDF1) mice
Details: endpoint: median survival time, higher = longer survival
Procedure, shortened: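 Mice carrying the transplanted tumor received test compound or vehicle. Survival was recorded in each group, and the value is the treated-group measurement divided by that of the vehicle-treated control group.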

[1] = dose: 60.0 mg/kg/injection, schedule: Q01DX005 (ip), vehicle: saline with Tween-80
[2] = dose: 100.0 mg/kg/injection, schedule: Q01DX009 (ip), vehicle: saline with Tween-80
[3] = dose: 200.0 mg/kg/injection, schedule: Q01DX009 (ip), vehicle: saline with Tween-80
[4] = dose: 400.0 mg/kg/injection, schedule: Q01DX009 (ip), vehicle: saline with Tween-80
[5] = dose: 50.0 mg/kg/injection, schedule: Q01DX005 (ip), vehicle: Klucel (hydroxypropylcellulose) (HPC)
[6] = dose: 100.0 mg/kg/injection, schedule: Q01DX005 (ip), vehicle: Klucel (hydroxypropylcellulose) (HPC)
[7] = dose: 200.0 mg/kg/injection, schedule: Q01DX005 (ip), vehicle: Klucel (hydroxypropylcellulose) (HPC)
[8] = dose: 25.0 mg/kg/injection, schedule: Q01DX005 (ip), vehicle: Klucel (hydroxypropylcellulose) (HPC)
[9] = dose: 50.0 mg/kg/injection, schedule: Q01DX005 (ip), vehicle: saline with Tween-80
[10] = dose: 100.0 mg/kg/injection, schedule: Q01DX005 (ip), vehicle: saline with Tween-80
[11] = dose: 200.0 mg/kg/injection, schedule: Q01DX005 (ip), vehicle: saline with Tween-80
[12] = dose: 60.0 mg/kg/injection, schedule: Q01DX005 (ip), vehicle: Klucel (hydroxypropylcellulose) (HPC)
[13] = dose: 120.0 mg/kg/injection, schedule: Q01DX005 (ip), vehicle: Klucel (hydroxypropylcellulose) (HPC)
[14] = dose: 240.0 mg/kg/injection, schedule: Q01DX005 (ip), vehicle: Klucel (hydroxypropylcellulose) (HPC)
[15] = dose: 12.5 mg/kg/injection, schedule: Q01DX005 (ip), vehicle: Klucel (hydroxypropylcellulose) (HPC)
[16] = dose: 12.5 mg/kg/injection, schedule: Q01DX009 (ip), vehicle: saline with Tween-80
[17] = dose: 25.0 mg/kg/injection, schedule: Q01DX009 (ip), vehicle: saline with Tween-80
[18] = dose: 50.0 mg/kg/injection, schedule: Q01DX009 (ip), vehicle: saline with Tween-80
[19] = dose: 100.0 mg/kg/injection, schedule: Q01DX009 (ip), vehicle: Klucel (hydroxypropylcellulose) (HPC)
[20] = dose: 200.0 mg/kg/injection, schedule: Q01DX009 (ip), vehicle: Klucel (hydroxypropylcellulose) (HPC)

Measured: T/C

CCc1cccc(C(C)C)c1NC1=C([n+]2ccc(C)cc2)C(=O)c2ccccc2C1=O
inactive: [1] 117 % of control | dose: 120.0 mg/kg/injection, schedule: Q01DX005 (ip), vehicle: saline with Tween-80 106 % of control | dose: 240.0 mg/kg/injection, schedule: Q01DX005 (ip), vehicle: saline with Tween-80 119 % of control

CC1=C(c2cc3ccccc3c3ccccc23)CCCC1
inactive: [2] 104 % of control | [3] 98 % of control | [4] 100 % of control

O=[N+]([O-])c1ccc(C(Nc2nncs2)Nc2nncs2)cc1
inactive: [5] 100 % of control | [6] 103 % of control | [7] 119 % of control

CN(C)[C@@H]1C(=O)C(C(N)=O)=C(O)[C@@]2(O)C(=O)C3=C(O)c4c(O)cccc4C[C@H]3C[C@@H]12
inactive: dose: 7.5 mg/kg/injection, schedule: Q01DX010 (ip), vehicle: saline 115 % of control | dose: 15.0 mg/kg/injection, schedule: Q01DX010 (ip), vehicle: saline 120 % of control

O=c1ccccc(Br)c1O
inactive: [8] 100 % of control | [5] 106 % of control | [6] 106 % of control

Cc1ccc(S(=O)(=O)CC(=O)CC(=O)C(C#N)c2cccc(Cl)c2)cc1 (stereo not drawn)
inactive: [9] 100 % of control | [10] 99 % of control | [11] 107 % of control

CCOC(=O)C1=Nc2cccc3c(O)ccc1c23
inactive: [9] 113 % of control | [10] 109 % of control | [11] 111 % of control

COc1cc(/C=C2/C(=O)N(c3ccccc3)N=C2C)cc(OC)c1OC
inactive: [12] 108 % of control | [13] 104 % of control | [14] 105 % of control

NC(=O)Nc1cc2[nH]c(=O)oc2cc1Cl
inactive: [15] 100 % of control | [8] 102 % of control | [5] 88 % of control | [6] 92 % of control

COc1cc2c(c(OC)c1OC)-c1cc3c(cc1CC1COC(=O)N1C2)OCO3 (stereo not drawn)
inactive: dose: 15.0 mg/kg/injection, schedule: Q01DX005 (ip), vehicle: Klucel (hydroxypropylcellulose) (HPC) 90 % of control and 94 % of control | dose: 30.0 mg/kg/injection, schedule: Q01DX005 (ip), vehicle: Klucel (hydroxypropylcellulose) (HPC) 100 % of control and 105 % of control | [12] 103 % of control and 116 % of control and 96 % of control

C=C(C)C1CCC=CC(=O)C1 (stereo not drawn)
inactive: dose: 100.0 mg/kg/injection, schedule: Q04DX003 (ip), vehicle: Klucel (hydroxypropylcellulose) (HPC) 107 % of control | dose: 200.0 mg/kg/injection, schedule: Q04DX003 (ip), vehicle: Klucel (hydroxypropylcellulose) (HPC) 116 % of control

c1ccc2c(c1)Sc1ccccc1N2CC1CN2CCC1CC2 (stereo not drawn)
inactive: dose: 6.25 mg/kg/injection, schedule: Q01DX009 (ip), vehicle: saline with Tween-80 107 % of control | [16] 98 % of control and 114 % of control | [17] 112 % of control and 123 % of control | [18] 104 % of control

Cn1c(=O)oc2cc(NC(N)=O)c(Br)cc21
inactive: [5] 92 % of control | [6] 87 % of control

CCc1nc(-c2ccccc2)nc2c1nc(C(C)C)n2Nc1ccccc1
inactive: dose: 100.0 mg/kg/injection, schedule: Q01DX001 (ip), vehicle: saline with Tween-80 104 % of control | dose: 200.0 mg/kg/injection, schedule: Q01DX001 (ip), vehicle: saline with Tween-80 93 % of control | dose: 400.0 mg/kg/injection, schedule: Q01DX001 (ip), vehicle: saline with Tween-80 89 % of control

CC(=O)Oc1ccc(C2c3cc(OC(C)=O)c(OC(C)=O)cc3CC3C(=O)OCC32)cc1OC(C)=O (stereo not drawn)
inactive: dose: 50.0 mg/kg/injection, schedule: Q01DX005 (ip), vehicle: distilled water + alcohol 102 % of control | dose: 100.0 mg/kg/injection, schedule: Q01DX005 (ip), vehicle: distilled water + alcohol 96 % of control | dose: 200.0 mg/kg/injection, schedule: Q01DX005 (ip), vehicle: distilled water + alcohol 100 % of control

Cc1ccc(S(=O)(=O)OC2CC(C(=O)O)N(S(=O)(=O)c3ccc(C)cc3)C2)cc1 (stereo not drawn)
inactive: dose: 100.0 mg/kg/injection, schedule: Q04DX003 (ip), vehicle: saline with Tween-80 100 % of control | dose: 200.0 mg/kg/injection, schedule: Q04DX003 (ip), vehicle: saline with Tween-80 95 % of control | dose: 400.0 mg/kg/injection, schedule: Q04DX003 (ip), vehicle: saline with Tween-80 95 % of control

OCC12C=COC1OC2(c1ccccc1)c1ccccc1 (stereo not drawn)
inactive: dose: 15.0 mg/kg/injection, schedule: Q01DX005 (ip), vehicle: saline with Tween-80 100 % of control | dose: 30.0 mg/kg/injection, schedule: Q01DX005 (ip), vehicle: saline with Tween-80 95 % of control | [1] 89 % of control and 98 % of control

CCCCCCCCOC(=O)c1ccc(I)cc1
inactive: [18] 97 % of control | [2] 101 % of control | [3] 97 % of control

CC(C)(C)C1CC=CC(=O)CC1 (stereo not drawn)
inactive: [19] 111 % of control | [20] 119 % of control

O=C(CCSC1=NCCCN1)c1ccc(F)cc1
inactive: [16] 111 % of control | [17] 118 % of control | [18] 118 % of control and 120 % of control

CC1(O)C2CCCCC2C2CCCCC2C1(C)O (stereo not drawn)
inactive: [9] 101 % of control | [10] 100 % of control | [11] 103 % of control

COc1ccc(CCNC(=O)Cc2ccc(OC)c(OC)c2)cc1OC
inactive: [2] 100 % of control | [3] 106 % of control | [4] 123 % of control

CCCC[As](CCCC)SC1CCC2(C)C(=CCC3C4CCC(=O)C4(C)CCC32)C1 (stereo not drawn)
inactive: dose: 12.5 mg/kg/injection, schedule: Q01DX009 (ip), vehicle: distilled water + Tween-80 98 % of control | dose: 25.0 mg/kg/injection, schedule: Q01DX009 (ip), vehicle: distilled water + Tween-80 98 % of control | dose: 50.0 mg/kg/injection, schedule: Q01DX009 (ip), vehicle: distilled water + Tween-80 92 % of control | dose: 100.0 mg/kg/injection, schedule: Q01DX009 (ip), vehicle: distilled water + Tween-80 89 % of control | dose: 200.0 mg/kg/injection, schedule: Q01DX009 (ip), vehicle: distilled water + Tween-80 107 % of control

CC1(c2ccccc2)NC(=O)N(Sc2ccccc2)C1=O (stereo not drawn)
inactive: [5] 111 % of control | [6] 113 % of control | [7] 107 % of control

NC1=C(O)C(=O)C(c2c3ccccc3cc3ccccc23)O1 (stereo not drawn)
inactive: [12] 94 % of control | [13] 108 % of control | [14] 86 % of control

Cc1ccc(S(=O)(=O)N/N=C/c2cc(I)cc([N+](=O)[O-])c2O)cc1
inactive: [9] 95 % of control | [10] 101 % of control | [11] 100 % of control

CCC(c1ccc(OCC(=O)N/N=C2/CCC3C4CCc5cc(O)ccc5C4CCC23C)cc1)C(CC)c1ccc(OCC(=O)N/N=C2\CCC3C4CCc5cc(O)ccc5C4CCC23C)cc1 (stereo not drawn)
inactive: dose: 25.0 mg/kg/injection, schedule: Q01DX001 (ip), vehicle: Klucel (hydroxypropylcellulose) (HPC) 98 % of control | dose: 50.0 mg/kg/injection, schedule: Q01DX001 (ip), vehicle: Klucel (hydroxypropylcellulose) (HPC) 90 % of control

O=C1C2=C(Nc3ccccc3N2)OC1c1ccco1 (stereo not drawn)
inactive: [15] 103 % of control | [8] 100 % of control | [5] 102 % of control and 89 % of control

Fc1ccc(NC(=S)Nc2ccccc2C(F)(F)F)cc1
inactive: dose: 50.0 mg/kg/injection, schedule: Q01DX009 (ip), vehicle: Klucel (hydroxypropylcellulose) (HPC) 92 % of control | [19] 92 % of control | [20] 100 % of control

CCN(CC)C(=O)C(Cc1ccc(OC)c(OC)c1)C(Cc1ccc(OC)c(OC)c1)C(=O)O (stereo not drawn)
inactive: dose: 100.0 mg/kg/injection, schedule: Q04DX003 (ip), vehicle: other 95 % of control | dose: 200.0 mg/kg/injection, schedule: Q04DX003 (ip), vehicle: other 95 % of control | dose: 400.0 mg/kg/injection, schedule: Q04DX003 (ip), vehicle: other 95 % of control

CCn1c(=O)c2[nH]c(Cl)nc2n(CCCl)c1=O
inactive: dose: 16.0 mg/kg/injection, schedule: Q01DX009 (ip), vehicle: Klucel (hydroxypropylcellulose) (HPC) 102 % of control and 118 % of control | dose: 32.0 mg/kg/injection, schedule: Q01DX009 (ip), vehicle: Klucel (hydroxypropylcellulose) (HPC) 111 % of control and 117 % of control | dose: 64.0 mg/kg/injection, schedule: Q01DX009 (ip), vehicle: Klucel (hydroxypropylcellulose) (HPC) 122 % of control | dose: 128.0 mg/kg/injection, schedule: Q01DX009 (ip), vehicle: Klucel (hydroxypropylcellulose) (HPC) 110 % of control
